In paper PMC9788040, “Molecular Diversity of Linear Peptides Revealed by Transcriptomic Analysis of the Venom Gland of the Spider Lycosa poonaensis” (Toxins, 2022):
Where no end group is shown, it is not given here.

Columns and labels:
[1] = tested on: Staphylococcus aureus NBRC 13276; assay: Antibacterial activity, liquid growth inhibition assay; assay type: cell-based; details: S. aureus NBRC 13276, LB medium, overnight 37 °C, A595; MIC as interval [a]–[b]; at least three experiments in duplicate
Method: (§1) Antibacterial activity was measured using the Gram-negative bacteria Escherichia coli NBRC 3972 and the Gram-positive bacteria Staphylococcus aureus NBRC 13276 and Bacillus subtilis NBRC 3009 (NITE Biological Resource Center, Chiba, Japan), using a liquid growth inhibition assay. Each bacteria strain was grown in a liquid LB medium (1% tryptone, 0.5% yeast extract, and 1% NaCl). Aliquots of each sample (10 µL) were incubated with 90 µL of a suspension of a mid-logarithmic phase culture of bacteria in a 96-well plate at a starting absorbance of A595 = 0.001 in the LB medium; the incubation occurred overnight at 37 °C with continuous shaking. Growth inhibition was monitored by measuring the absorbance at 595 nm using a Benchmark microplate reader (Bio-Rad, Hercules, CA, USA). Experiments were repeated at least three times, each time in duplicate. Minimal inhibitory concentrations (MICs) are expressed as the interval of concentrations [a]–[b], where [a] is the highest concentration at which bacteria still grow and [b] is the lowest concentration causing growth inhibition.

[2] = tested on: Bacillus subtilis NBRC 3009; assay: as above; assay type: cell-based; details: B. subtilis NBRC 3009, LB medium, overnight 37 °C, A595; MIC as interval [a]–[b]; at least three experiments in duplicate
Method: as §1

[3] = tested on: Escherichia coli NBRC 3972; assay: as above; assay type: cell-based; details: E. coli NBRC 3972, LB medium, overnight 37 °C, A595; MIC as interval [a]–[b]; at least three experiments in duplicate
Method: as §1

[4] = tested on: sheep red blood cells (sRBCs); assay: Hemolytic activity; assay type: cell-based; details: sheep RBC 4% (v/v) in PBS pH 7.2, 1 h 37 °C, absorbance 450 nm; 3 experiments in triplicate; read-out: Hemolysis EC50
Method: Fresh sheep red blood cells (sRBCs) were washed three times with PBS (35 mM phosphate buffer and 150 mM NaCl, pH 7.2) through centrifugation at 2000× g for 5 min and resuspended in PBS. Specifically, aliquots of each sample in PBS (50 μL) were added to 50 μL of sRBC suspension [4% (v/v) in the final] in a microtube and incubated for 1 h at 37 °C; then, the samples were centrifuged at 2000× g for 5 min. The supernatant was transferred to a 96-well plate to monitor hemoglobin release, which was done by measuring the absorbance of the supernatant at 450 nm using a Benchmark microplate reader. PBS and 0.1% Triton X-100 were used as the negative and positive controls, respectively. The experiments were repeated 3 times, each time in triplicate. In the equation to calculate the hemolysis rate, AP refers to peptide sample absorbance, AT refers to 0.1% Triton X-100 positive control absorbance, and A0 refers to PBS sample negative control absorbance. Hemolysis rate (%)=Ap−A0/AT−A0×100

[5] = tested on: crickets (Acheta domesticus); assay: Insect toxicity (paralysis after injection); assay type: in vivo; details: injection into abdominal region, paralysis counted 30 min after injection, 10 insects per measurement, parentheses = 95% confidence intervals
Method: Insect toxicity was tested on crickets (Acheta domesticus, 50 ± 5 mg body weight) by injecting 1–2 µL of each sample dissolved in distilled water into their abdominal region. Distilled water was injected as a control. For each measurement, 10 insects were used, and the number of paralyzed insects was counted 30 min after injection. The doses required to induce paralysis in half of the test animals (PD50) were determined using the statistical software PRISM (GraphPad Software, La Jolla, CA, USA).

[6] = Secondary structure estimation by CD spectroscopy (DichroWeb); assay type: physicochemical; details: 25 °C, DichroWeb CDSSTR, reference dataset 4
Method: CD spectra were recorded on a J-820 spectropolarimeter (Jasco, Tokyo, Japan). The spectra were measured between 190–260 nm (in 0.2-nm steps) at 25 °C with a 1-mm-pathlength cell. Samples were dissolved in a 0.2 M phosphate buffer (pH 7.0) or 50% TFE in a 0.2 M phosphate buffer (pH 7.0) at a concentration of 10 µM. Five scans were averaged for each sample. The percentages of secondary structures were estimated from the spectra using the DichroWeb server. The helical wheel projection was performed using the online software HeliQuest (https://heliquest.ipmc.cnrs.fr, accessed on 14 July 2022).

[7] = solvent I: 0.2 M phosphate buffer pH 7.0, 10 µM
[8] = solvent II: 50% TFE in 0.2 M phosphate buffer pH 7.0, 10 µM

Substance	Antibacterial Activity MIC, S. aureus [1] [µM]	Antibacterial Activity MIC, B. subtilis [2] [µM]	Antibacterial Activity MIC, E. coli [3] [µM]	EC50 [4] [µM]	Insect Toxicity PD50 [5]	Percentage of Secondary Structure, Turns [6, 7] [%]	Percentage of Secondary Structure, Unordered [6, 7] [%]	Percentage of Secondary Structure, α-Helix [6, 7] [%]	Percentage of Secondary Structure, β-Sheet [6, 7] [%]	Percentage of Secondary Structure, Turns [6, 8] [%]	Percentage of Secondary Structure, Unordered [6, 8] [%]	Percentage of Secondary Structure, α-Helix [6, 8] [%]	Percentage of Secondary Structure, β-Sheet [6, 8] [%]
AGLGKIGAFIKKAYAIYKAKAA-NH2 [M-lycotoxin-Lp5a]	50 to 100	1.25 to 2.5	1.25 to 2.5	> 100	50 (18.3–138) µg/g Weight	28	33	15	23	10	18	55	17
AGLGKIGALIKKAYAIYKAKAA-NH2 [M-lycotoxin-Lp5b]	50 to 100	1.25 to 2.5	1.25 to 2.5	> 100	44 (12.2–160) µg/g Weight	25	34	7	33	11	23	51	14
IWLTALKFIGKNLGKHFAKQQLSKL-NH2 [M-lycotoxin-Lp3a]	0.4 to 0.8	0.8 to 1.6	0.8 to 1.6	> 100									
KIKWFKAMKSIAKYVAKKQLKKHLGGEN [M-lycotoxin-Lp4]					10 (5.8–17.1) µg/g Weight	26	33	8	33	13	23	51	11
MVWLLPLKFLASHVAMEQLSKLGSKIATKL-NH2 [M-lycotoxin-Lp1a]	12.5 to 25	12.5 to 25	6.2 to 12.5	> 100									
SKWKAFLAKMKEIASEAL-NH2 [M-lycotoxin-Lp6]	>100	5 to 12.5	5 to 12.5	> 100									
VIWLPALKFLASHIAMEQLSKL-NH2 [M-lycotoxin-Lp1b]	3.1 to 6.2	6.2 to 12.5	50 to 100	> 100									
